Measured values: patent publication US20020161528A1, “Tool for lipophilicity determination in drug discovery basic and neutral compounds” (Pfizer Inc., priority 2001, published 2002)
Counter-ions that a name gives are not always drawn. Like-named read-outs stand apart in the source and are kept apart here.

How the values were obtained:
[1] = pH 7.4, cited from earlier work
[2] = for log k′w / ElogDoct: pH 7.4
physchem = details: pH 7.4
[3] = Reference logDoct at pH 7.4: literature shake-flask or countercurrent data, shake-vial and pH-metric determinations, averaged
[4] = Table 1, capacity factor extrapolated to 0% methanol, average of three to five determinations
[5] = Table 1, average of literature references only
[6] = Table 1, from log k′w by Equation 1
[7] = Table 1, own shake-vial (Procedure A/B) and/or potentiometric determinations only

Oc1cc(Cl)cc(Cl)c1 [3,5-Dichiorophenol]
logDoct [1]: 3.68 | Res (logDoct − ElogDoct) ([2]; Table 1): −0.40 | log k′w [2, 4]: 3.44 | ElogDoct [2]: 4.08

Brc1cnc2ccccc2c1 [3-Bromoquinoline]
logDoct [1, 5]: 3.03 | log k′w [2, 4]: 2.53

Oc1cccc(Cl)c1 [3-Chlorophenol]
chromatographic logD (physchem): 3.11 | Res (logDoct − ElogDoct) ([2]; Table 1): −0.61 | log k′w [2, 4]: 2.58

CC(=O)Nc1ccc(O)cc1 [Acetominophen]
Res (logDoct − ElogDoct) ([2]; Table 1): 0.13 | log k′w [2, 4]: 0.15 | ElogDoct [2, 6]: 0.38

CC(=O)c1ccccc1 [Acetophenone]
chromatographic logD (physchem): 1.57 | log k′w [2, 4]: 1.21

Oc1ncnc2[nH]ncc12 [Allopurinol]
chromatographic logD (physchem): -0.1 | log k′w [2, 4]: −0.27 | logDoct ([3]; Table 1, average of own shake-vial/potentiometric determinations and literature references): −0.44

C=CCc1ccccc1OCC(O)CNC(C)C (stereo not drawn) [Alprenolol]
chromatographic logD (physchem): 0.62 | log k′w [2, 4]: 0.37

CCCCc1oc2ccccc2c1C(=O)c1cc(I)c(OCCN(CC)CC)c(I)c1 [Amiodarone]
log k′w [2, 4]: 5.10

CCOC(=O)C1=C(COCCN)NC(C)=C(C(=O)OC)C1c1ccccc1Cl (stereo not drawn) [Amlodipine]
chromatographic logD (physchem): 2.15

CN1[C@@H]2CC[C@H]1C[C@@H](OC(=O)C(CO)c1ccccc1)C2 (stereo partly drawn) [Atropine]
log k′w [2]: −0.33

c1ccc(-c2ccc(C(c3ccccc3)n3ccnc3)cc2)cc1 (stereo not drawn) [Bifonazole]
chromatographic logD (physchem): 5.09 | logDoct [1, 5]: 4.77 | log k′w [2, 4]: 4.33

O=C1CN=C(c2ccccn2)c2cc(Br)ccc2N1 [Bromazepam]
chromatographic logD (physchem): 1.38 | logDoct [1, 5]: 1.65 | Res (logDoct − ElogDoct) ([2]; Table 1): 0.27 | log k′w [2, 4]: 1.04

NC(=O)N1c2ccccc2C=Cc2ccccc21 [Carbamazepine]
logDoct [1, 5]: 2.19 | log k′w [2, 4]: 1.40

CN(C)CCC(c1ccc(Cl)cc1)c1ccccn1 (stereo not drawn) [Chlorpheniramine]
log k′w [2, 4]: 1.20

CN(C)CCCN1c2ccccc2Sc2ccc(Cl)cc21 [Chlorpromazine]
chromatographic logD (physchem): 3.2 | log k′w [2, 4]: 2.66

NS(=O)(=O)c1cc(C2(O)NC(=O)c3ccccc32)ccc1Cl (stereo not drawn) [Chlorthalidone]
chromatographic logD (physchem): 1.06 | log k′w [2, 4]: 0.76

CN/C(=N/CCSCc1nc[nH]c1C)NC#N [Cimetidine]
log k′w [2, 4]: 0.17 | logDoct [3, 7]: 0.35

Clc1cccc(Cl)c1N=C1NCCN1 [Clonidine]
chromatographic logD (physchem): 0.29 | logDoct [1, 5]: 0.62 | log k′w [2, 4]: 0.07

Clc1ccccc1C(c1ccccc1)(c1ccccc1)n1ccnc1 [Clotrimazole]
chromatographic logD (physchem): 4.75 | log k′w [2, 4]: 4.03

CN1CCN(C2=Nc3cc(Cl)ccc3Nc3ccccc32)CC1 [Clozapine]
chromatographic logD (physchem): 3.38

COC(=O)[C@H]1[C@@H](OC(=O)c2ccccc2)C[C@@H]2CC[C@H]1N2C [Cocaine]
chromatographic logD (physchem): 0.48 | logDoct [1, 5]: 1.05 | Res (logDoct − ElogDoct) ([2]; Table 1): 0.57

COc1ccc2c3c1O[C@H]1[C@@H](O)C=C[C@H]4[C@@H](C2)N(C)CC[C@@]341 [Codeine]
chromatographic logD (physchem): 0.39 | logDoct [1, 5]: 0.23 | Res (logDoct − ElogDoct) ([2]; Table 1): −0.16 | log k′w [2, 4]: 0.16

NS(=O)(=O)c1cc2c(cc1Cl)NC(C1CC3C=CC1C3)NS2(=O)=O (stereo not drawn) [Cyclothiazide]
chromatographic logD (physchem): 2.63 | log k′w [2, 4]: 2.15 | logDoct [3, 7]: 2.09

C[C@@H]1C[C@H]2[C@@H]3CCC4=CC(=O)C=C[C@]4(C)[C@@]3(F)[C@@H](O)C[C@]2(C)[C@@]1(O)C(=O)CO [Dexamethasone]
chromatographic logD (physchem): 2.03 | logDoct [1, 5]: 1.83

CN1C(=O)CN=C(c2ccccc2)c2cc(Cl)ccc21 [Diazepam]
log k′w [2]: 2.46

CC/C(=C(/CC)c1ccc(O)cc1)c1ccc(O)cc1 [Diethylstilbestrol]
chromatographic logD (physchem): 4.85 | logDoct [1, 5]: 5.07 | log k′w [2, 4]: 4.12

COc1ccc([C@@H]2Sc3ccccc3N(CCN(C)C)C(=O)[C@@H]2OC(C)=O)cc1 [Diltiazem]
chromatographic logD (physchem): 2 | log k′w [2, 4]: 1.59 | logDoct [3, 7]: 2.06

CN(C)CCOC(c1ccccc1)c1ccccc1 [Diphenhydramine]
log k′w [2, 4]: 1.04

CC(C)N(CCC(C(N)=O)(c1ccccc1)c1ccccn1)C(C)C (stereo not drawn) [Disopyramide]
chromatographic logD (physchem): -1.15 | log k′w [2, 4]: −1.21 | logDoct [3, 7]: −0.66

C[C@]12CC[C@@H]3c4ccc(O)cc4CC[C@H]3[C@@H]1CC[C@@H]2O [Estradiol]
chromatographic logD (physchem): 3.9

O=C(NCC1CCCCN1)c1cc(OCC(F)(F)F)ccc1OCC(F)(F)F (stereo not drawn) [Flecainide]
chromatographic logD (physchem): 0.49 | log k′w [2, 4]: 0.25

COC1=CC(=O)C[C@@H](C)[C@]12Oc1c(Cl)c(OC)cc(OC)c1C2=O [Griseofulvin]
chromatographic logD (physchem): 2.16 | logDoct [1, 5]: 2.18 | log k′w [2, 4]: 1.73

O=C(CCCN1CCC(O)(c2ccc(Cl)cc2)CC1)c1ccc(F)cc1 [Haloperidol]
chromatographic logD (physchem): 2.46 | log k′w [2, 4]: 2.00

CC(=O)OCC(=O)[C@@]1(O)CC[C@H]2[C@@H]3CCC4=CC(=O)CC[C@]4(C)[C@H]3[C@@H](O)C[C@@]21C [Hydrocortisone-21 acetate]
logDoct [1]: 2.19 | Res (logDoct − ElogDoct) ([2]; Table 1): 0.13 | log k′w [2, 4]: 1.64 | ElogDoct [2, 6]: 2.06

C[C@]12CCC(=O)C=C1CC[C@@H]1[C@@H]2[C@@H](O)C[C@@]2(C)[C@H]1CC[C@]2(O)C(=O)CO [Hydrocortisone]
chromatographic logD (physchem): 1.49

CN(C)CCCN1c2ccccc2CCc2ccccc21 [Imipramine]
log k′w [2, 4]: 1.56

CCN(CC)CC(=O)Nc1c(C)cccc1C [Lidocaine]
log k′w [2, 4]: 0.96

CCOC(=O)N1CCC(=C2c3ccc(Cl)cc3CCc3cccnc32)CC1 [Loratadine]
log k′w [2, 4]: 4.02

O=C1Nc2ccc(Cl)cc2C(c2ccccc2Cl)=NC1O (stereo not drawn) [Lorazepam]
chromatographic logD (physchem): 2.8 | Res (logDoct − ElogDoct) ([2]; Table 1): −0.29 | log k′w [2, 4]: 2.30

CN1C(=O)C(O)N=C(c2ccccc2Cl)c2cc(Cl)ccc21 (stereo not drawn) [Lormetazepam]
chromatographic logD (physchem): 2.77 | logDoct [1, 5]: 2.72 | Res (logDoct − ElogDoct) ([2]; Table 1): −0.05 | log k′w [2, 4]: 2.27

CSc1ncnc2c1ncn2[C@@H]1O[C@H](CO)[C@@H](O)[C@H]1O [Methylthioinosine]
logDoct [1]: 0.09 | Res (logDoct − ElogDoct) ([2]; Table 1): −0.40 | log k′w [2, 4]: 0.25 | ElogDoct [2, 6]: 0.49

COCCc1ccc(OCC(O)CNC(C)C)cc1 (stereo not drawn) [Metoprolol]
chromatographic logD (physchem): -0.62 | log k′w [2, 4]: −0.73

Cc1ncc([N+](=O)[O-])n1CCO [Metronidazole]
chromatographic logD (physchem): 0.12 | logDoct [1, 5]: −0.02 | log k′w [2, 4]: −0.08

CN1CC[C@]23c4c5ccc(O)c4O[C@H]2[C@@H](O)C=C[C@H]3[C@H]1C5.O=S(=O)(O)O [Morphine sulfate]
log k′w [2]: 0.10

c1ccc2ccccc2c1 [Naphthalene]
chromatographic logD (physchem): 3.62 | log k′w [2, 4]: 3.03

O=[N+]([O-])c1ccc(/C=N/O)o1 [Nifuroxime]
chromatographic logD (physchem): 1.49 | logDoct [1, 5]: 1.28 | log k′w [2, 4]: 1.14

NC(=O)N/N=C/c1ccc([N+](=O)[O-])o1 [Nitrofurazone]
chromatographic logD (physchem): 0.53 | logDoct [1, 5]: 0.23 | log k′w [2, 4]: 0.29

CNC(=C[N+](=O)[O-])NCCSCc1csc(CN(C)C)n1 [Nizatidine]
chromatographic logD (physchem): 0.06 | logDoct [1, 5]: −0.52 | log k′w [2, 4]: −0.13

COc1ccc2[nH]c([S+]([O-])Cc3ncc(C)c(OC)c3C)nc2c1 (stereo not drawn) [Omeprazole]
chromatographic logD (physchem): 2

CC(=O)CCCCn1c(=O)c2c(ncn2C)n(C)c1=O [Pentoxifylline]
chromatographic logD (physchem): 0.24 | logDoct [1, 5]: 0.29 | log k′w [2, 4]: 0.03

C[C@]12C=CC(=O)C=C1CC[C@@H]1[C@@H]2[C@@H](O)C[C@@]2(C)[C@H]1CC[C@]2(O)C(=O)CO [Prednisolone]
chromatographic logD (physchem): 1.6 | log k′w [2, 4]: 1.24

C[C@]12C=CC(=O)C=C1CC[C@@H]1[C@@H]2C(=O)C[C@@]2(C)[C@H]1CC[C@]2(O)C(=O)CO [Prednisone]
chromatographic logD (physchem): 1.22 | log k′w [2, 4]: 0.90

CCN(CC)CCNC(=O)c1ccc(N)cc1 [Procainamide]
chromatographic logD (physchem): -0.57 | log k′w [2, 4]: −0.69

c1ccc2ncccc2c1 [Quinoline]
chromatographic logD (physchem): 1.92 | logDoct [1]: 2.03 | log k′w [2, 4]: 1.52

CNC(=C[N+](=O)[O-])NCCSCc1ccc(CN(C)C)o1 [Ranitidine]
chromatographic logD (physchem): -0.5 | logDoct [3, 7]: −0.29

Cc1nc2n(c(=O)c1CCN1CCC(c3noc4cc(F)ccc34)CC1)CCCC2 [Risperidone]
chromatographic logD (physchem): 1.59 | Res (logDoct − ElogDoct) ([2]; Table 1): 0.45 | log k′w [2, 4]: 1.23

CC(C)NCC(O)c1ccc(NS(C)(=O)=O)cc1 (stereo not drawn) [Sotalol]
chromatographic logD (physchem): -1.45 | log k′w [2, 4]: −1.47

CC(C)(C)NCC(O)c1cc(O)cc(O)c1 (stereo not drawn) [Terbutaline sulfate]
chromatographic logD (physchem): -1.49 | logDoct [1, 5]: −1.35 | log k′w [2, 4]: −1.51

C[C@]12CC[C@H]3[C@@H](CCC4=CC(=O)CC[C@@]43C)[C@@H]1CC[C@@H]2O [Testosterone]
logDoct [1, 5]: 3.29 | Res (logDoct − ElogDoct) ([2]; Table 1): 0.12 | log k′w [2, 4]: 2.63 | ElogDoct [2]: 3.17

CCCCNc1ccc(C(=O)OCCN(C)C)cc1 [Tetracaine]
chromatographic logD (physchem): 2.12 | logDoct [1, 5]: 2.29 | Res (logDoct − ElogDoct) ([2]; Table 1): 0.17 | log k′w [2, 4]: 1.70

CS(=O)(=O)c1ccc([C@@H](O)[C@@H](CO)NC(=O)C(Cl)Cl)cc1 [Thiamphenicol]
chromatographic logD (physchem): 0.15 | logDoct [1, 5]: −0.27 | log k′w [2, 4]: −0.05

CSc1ccc2c(c1)N(CCC1CCCCN1C)c1ccccc1S2 (stereo not drawn) [Thioridazine]
chromatographic logD (physchem): 3.45 | log k′w [2, 4]: 2.88

Cc1cccc(N(C)C(=S)Oc2ccc3ccccc3c2)c1 [Tolnaftate]
log k′w [2, 4]: 4.53

Nc1nc(N)c2nc(-c3ccccc3)c(N)nc2n1 [Triamterene]
chromatographic logD (physchem): 1.01 | log k′w [2, 4]: 0.71
